Test results as given in patent publication US10303923B1, “Quantitation of NETosis using image analysis” (The University of North Carolina at Chapel Hill, priority 2018, dated 2019).
pEC50: −log10 of the molar value. Entries after “also recorded” stand apart in the source; their conditions may differ. Read-outs that look alike come from different tables or passages of the source.

Key:
[1] = test system: neutrophils from SCD patients; assay: NETosis quantitation by CNN image analysis in neutrophils from SCD patients at steady-state; type: cell-based, human; details: SCD patients at steady-state (n=7), 2 hours treatment, two-way ANOVA
Excerpt: We next applied this assay to an inflammatory disease that has been suspected of being influenced by NETosis; patients with sickle cell disease (SCD) suffer chronic inflammation due to recurrent ischemia/reperfusion injuries and are hypercoagulable. The hypercoagulability is thought to be due to at least in part to circulating NETs similar to other inflammatory diseases. Soluble components presumably from NETs (DNA and nucleosomes) are detectible in plasma from both SCD patients and humanized SCD mice^11, 12. Furthermore, neutrophils from healthy individuals exposed to plasma from SCD patients causes NET generation. Because SCD neutrophils function at a reduced capacity for oxidative burst and produce less ROS than non-SCD neutrophils, we asked whether the ROS-dependent NETosis pathway is affected^13-15. Only patients at steady-state were included in the study. […] Reduction of neutrophils' oxidative burst capacity also occurs in conditions such as chronic granulomatous disease (CGD), and results in reduced NETosis^16. The divergence of our results from those previously published are possibly due to our observation of NETosis in neutrophils directly without the use of a surrogate NETosis biomarker.
The same conditions for cell isolation and treatment were used for neutrophils from SCD patients at steady-state (n=7), and the results are shown in graphs 206 and 208. […]

[2] = test system: Human neutrophils from healthy volunteers; assay: NETosis quantitation by CNN image analysis in adherent neutrophils from healthy volunteers; type: cell-based; details: read-out: EC50 (concentration inducing 50% of neutrophils to undergo NETosis)
Excerpt: This specification describes an assay for the assessment of 1) the EC50 of NETotic agonists in adherent human neutrophils and 2) the NETosis mechanism specific to these agonists. Neutrophils were isolated from peripheral blood of healthy volunteers and allowed to adhere to 96-well plates before stimulation with different concentrations of agonists. We established our assay with two widely used agonists, PMA, a PKC activator and A23187, a Ca+2 ionophore. NETosis data were acquired using the automated BD Pathway 855 Bio-imaging Systems. An image processing algorithm was created to distinguish two populations related to neutrophil nuclear size, intensity and texture. Our assay is the first to describe a semi-automated imaging and analysis method for the study of NETosis and is a positive step towards standardizing the quantitation of NETosis in isolated cells. This assay has potential applications in screening novel pharmaceuticals and in analyzing cells from patients with various diseases.
Adherent neutrophils were treated for 2 hours with either agonist or DMSO vehicle. DMSO treatment alone causes neutrophil NETosis reaching a maximum response of 30% with 0.16% DMSO. The resulting NETotic nuclei are visually indistinguishable from those observed with PMA- or A23187-treatments as shown graph 204. DMSO is the recommended solvent for both PMA and A23187. […]

| Compound | NETosis response of SCD neutrophils compared with non-SCD neutrophils [1] | pEC50 ([2]; Homo sapiens, Neutrophil, n=8, 2 hours treatment, PADIV-dependent pathway) | pEC50 ([2]; n=11, 2 hours treatment, ROS-dependent pathway) |
| --- | --- | --- | --- |
| CNc1ccc2oc(C[C@H]3O[C@@]4(CC[C@H]3C)O[C@H]([C@H](C)C(=O)c3ccc[nH]3)[C@H](C)C[C@H]4C)nc2c1C(=O)O [A23187, Calcimycin] | responded similarly; also recorded: little difference was observed between SCD and non-SCD | 6.05 | – |
| CCCCCCCCCCCCCC(=O)O[C@@H]1[C@@H](C)[C@@]2(O)[C@@H](C=C(CO)C[C@]3(O)C(=O)C(C)=C[C@@H]23)[C@@H]2C(C)(C)[C@]12OC(C)=O [PMA] | comparatively insensitive; also recorded: responded poorly | – | 8.68 |
